Data on ten compounds can be found in ChEMBL document CHEMBL1154884, “Synthesis and biological evaluation of triazol-4-ylphenyl-bearing histone deacetylase inhibitors as anticancer agents” (J Med Chem, 2010).

As usually defined, the IC50 is the concentration that gives 50% inhibition.

The subject of test [1] is BXPC-3. The test is described as follows: cells. The conditions noted are these: Homo sapiens, BXPC-3, 72 h.
For test [2], the target named is T1, Protein deacetylase HDAC6 (Homo sapiens, UniProt Q9UBN7).
T1 sequence (Q9UBN7 whole entry): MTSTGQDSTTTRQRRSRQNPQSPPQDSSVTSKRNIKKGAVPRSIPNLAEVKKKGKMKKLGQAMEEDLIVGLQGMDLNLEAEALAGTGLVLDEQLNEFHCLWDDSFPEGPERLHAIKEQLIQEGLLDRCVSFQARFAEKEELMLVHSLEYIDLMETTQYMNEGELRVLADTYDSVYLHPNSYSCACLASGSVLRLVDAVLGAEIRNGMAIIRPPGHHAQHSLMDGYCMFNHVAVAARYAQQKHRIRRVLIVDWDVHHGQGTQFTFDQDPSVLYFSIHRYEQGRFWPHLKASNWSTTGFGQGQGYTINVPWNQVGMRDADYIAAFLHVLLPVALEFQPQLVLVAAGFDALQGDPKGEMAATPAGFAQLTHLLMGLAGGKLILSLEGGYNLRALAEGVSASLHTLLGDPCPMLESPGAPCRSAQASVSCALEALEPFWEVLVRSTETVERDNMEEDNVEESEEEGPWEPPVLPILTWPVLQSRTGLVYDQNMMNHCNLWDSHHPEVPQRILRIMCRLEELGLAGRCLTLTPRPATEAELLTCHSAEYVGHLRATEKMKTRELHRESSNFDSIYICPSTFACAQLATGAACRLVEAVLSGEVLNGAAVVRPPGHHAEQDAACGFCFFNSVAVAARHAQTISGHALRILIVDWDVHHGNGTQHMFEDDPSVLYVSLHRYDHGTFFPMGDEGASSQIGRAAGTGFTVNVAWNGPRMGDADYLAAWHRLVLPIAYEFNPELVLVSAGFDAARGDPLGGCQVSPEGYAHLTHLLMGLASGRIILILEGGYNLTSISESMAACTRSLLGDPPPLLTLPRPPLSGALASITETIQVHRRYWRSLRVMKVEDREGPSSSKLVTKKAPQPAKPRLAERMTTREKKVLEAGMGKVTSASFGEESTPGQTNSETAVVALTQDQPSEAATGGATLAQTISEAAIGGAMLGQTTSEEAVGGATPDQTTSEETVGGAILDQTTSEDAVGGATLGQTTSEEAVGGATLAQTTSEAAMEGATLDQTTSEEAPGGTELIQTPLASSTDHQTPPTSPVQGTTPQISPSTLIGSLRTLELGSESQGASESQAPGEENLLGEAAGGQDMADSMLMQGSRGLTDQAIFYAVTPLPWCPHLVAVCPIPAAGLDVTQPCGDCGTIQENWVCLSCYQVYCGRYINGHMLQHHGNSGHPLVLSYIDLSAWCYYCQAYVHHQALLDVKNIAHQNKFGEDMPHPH
Description: Inhibition of HDAC6 assessed as blockade of decorboxylation of carboxyfluorescein labeled acetylated peptide substrate after 17 hrs

Test [3] deals with MIA PaCa-2. The test can be described thus: cells. The following applies: Homo sapiens, MIA PaCa-2, 72 h.
Test [4] has as its target T2, Histone deacetylase 8 (Homo sapiens, UniProt Q9BY41).
T2 sequence (Q9BY41 whole entry): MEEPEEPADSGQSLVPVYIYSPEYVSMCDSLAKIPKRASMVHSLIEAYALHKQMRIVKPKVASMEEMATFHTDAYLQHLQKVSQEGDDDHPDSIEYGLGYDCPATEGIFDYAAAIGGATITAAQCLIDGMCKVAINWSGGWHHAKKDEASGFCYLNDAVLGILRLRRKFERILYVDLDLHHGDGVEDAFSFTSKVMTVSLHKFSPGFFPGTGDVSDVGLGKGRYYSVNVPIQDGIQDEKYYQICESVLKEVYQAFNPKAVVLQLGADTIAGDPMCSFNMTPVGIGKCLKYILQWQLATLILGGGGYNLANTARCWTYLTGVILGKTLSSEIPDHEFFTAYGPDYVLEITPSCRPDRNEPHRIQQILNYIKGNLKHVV
Description: Inhibition of HDAC8 assessed as blockade of decorboxylation of carboxyfluorescein labeled acetylated peptide substrate after 17 hrs

The subject of test [5] is HuP-T3. The test is described as follows: cells. The following applies: Homo sapiens, HuP-T3, 72 h.
Test [6] concerns the target Histone deacetylase 3 (Homo sapiens, UniProt O15379).
Description: Inhibition of HDAC3 assessed as blockade of decorboxylation of carboxyfluorescein labeled acetylated peptide substrate after 17 hrs
The nature of test [7]: cells. The conditions noted are these: Homo sapiens, SU.86.86, 72 h.
For test [8], the target named is T3, Polyamine deacetylase HDAC10 (Homo sapiens, UniProt Q969S8).
T3 sequence (Q969S8 whole entry): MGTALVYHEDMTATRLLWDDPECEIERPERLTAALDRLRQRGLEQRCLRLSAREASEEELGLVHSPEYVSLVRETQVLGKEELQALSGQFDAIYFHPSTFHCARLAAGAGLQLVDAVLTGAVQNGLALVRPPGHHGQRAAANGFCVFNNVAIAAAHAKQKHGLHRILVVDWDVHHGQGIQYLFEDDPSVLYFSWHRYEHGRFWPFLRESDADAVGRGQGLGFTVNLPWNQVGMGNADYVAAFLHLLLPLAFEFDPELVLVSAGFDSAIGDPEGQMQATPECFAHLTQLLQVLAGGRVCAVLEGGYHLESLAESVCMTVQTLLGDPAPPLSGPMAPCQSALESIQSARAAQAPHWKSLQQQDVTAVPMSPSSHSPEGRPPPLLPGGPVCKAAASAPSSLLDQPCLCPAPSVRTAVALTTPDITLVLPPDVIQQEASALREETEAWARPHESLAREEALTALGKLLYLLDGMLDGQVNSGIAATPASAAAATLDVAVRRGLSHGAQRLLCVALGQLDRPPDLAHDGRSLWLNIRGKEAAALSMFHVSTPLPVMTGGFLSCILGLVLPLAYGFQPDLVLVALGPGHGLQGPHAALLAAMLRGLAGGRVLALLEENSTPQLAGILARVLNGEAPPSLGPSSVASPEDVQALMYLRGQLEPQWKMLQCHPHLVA
Description: Inhibition of HDAC10 assessed as blockade of decorboxylation of carboxyfluorescein labeled acetylated peptide substrate after 17 hrs

Test [9] can be described thus: cells. The following applies: Homo sapiens, Panc 04.03, 72 h.
The target in test [10] is Histone deacetylase 1 (Homo sapiens, UniProt Q13547).
Chain of Histone deacetylase 1 (Q13547 whole entry): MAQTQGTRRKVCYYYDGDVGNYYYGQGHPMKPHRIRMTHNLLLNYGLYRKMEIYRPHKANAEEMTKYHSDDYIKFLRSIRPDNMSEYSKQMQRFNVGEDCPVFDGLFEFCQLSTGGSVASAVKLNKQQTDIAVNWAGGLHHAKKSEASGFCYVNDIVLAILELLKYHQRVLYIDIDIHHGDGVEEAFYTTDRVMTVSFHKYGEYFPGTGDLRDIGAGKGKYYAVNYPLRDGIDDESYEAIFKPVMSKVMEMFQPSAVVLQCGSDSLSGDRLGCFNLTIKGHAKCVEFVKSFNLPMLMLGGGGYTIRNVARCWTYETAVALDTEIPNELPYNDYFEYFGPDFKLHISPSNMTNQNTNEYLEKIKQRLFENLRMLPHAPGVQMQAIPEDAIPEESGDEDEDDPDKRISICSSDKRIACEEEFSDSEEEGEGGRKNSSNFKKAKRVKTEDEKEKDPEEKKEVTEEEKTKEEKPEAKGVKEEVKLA
Description: Inhibition of HDAC1 assessed as blockade of decorboxylation of carboxyfluorescein labeled acetylated peptide substrate after 17 hrs
In test [11] the target is Histone deacetylase 2 (Homo sapiens, UniProt Q92769).
Chain of Histone deacetylase 2 (Q92769 whole entry): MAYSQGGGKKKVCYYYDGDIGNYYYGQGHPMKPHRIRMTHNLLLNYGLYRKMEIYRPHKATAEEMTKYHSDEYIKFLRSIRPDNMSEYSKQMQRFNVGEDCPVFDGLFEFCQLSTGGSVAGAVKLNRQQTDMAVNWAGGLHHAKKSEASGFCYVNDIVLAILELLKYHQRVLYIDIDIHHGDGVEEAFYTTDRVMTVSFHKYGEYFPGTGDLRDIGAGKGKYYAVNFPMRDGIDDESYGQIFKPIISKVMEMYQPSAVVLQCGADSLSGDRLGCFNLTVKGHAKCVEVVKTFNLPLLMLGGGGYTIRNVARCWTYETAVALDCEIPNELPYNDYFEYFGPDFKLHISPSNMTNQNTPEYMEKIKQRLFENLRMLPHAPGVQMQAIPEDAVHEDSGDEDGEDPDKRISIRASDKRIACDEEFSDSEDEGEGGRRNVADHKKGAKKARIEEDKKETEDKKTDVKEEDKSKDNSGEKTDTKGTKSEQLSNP
Description: Inhibition of HDAC2 assessed as blockade of decorboxylation of carboxyfluorescein labeled acetylated peptide substrate after 17 hrs

SMILES strings stand for the structures.

Chain of Histone deacetylase 3 (O15379 whole entry): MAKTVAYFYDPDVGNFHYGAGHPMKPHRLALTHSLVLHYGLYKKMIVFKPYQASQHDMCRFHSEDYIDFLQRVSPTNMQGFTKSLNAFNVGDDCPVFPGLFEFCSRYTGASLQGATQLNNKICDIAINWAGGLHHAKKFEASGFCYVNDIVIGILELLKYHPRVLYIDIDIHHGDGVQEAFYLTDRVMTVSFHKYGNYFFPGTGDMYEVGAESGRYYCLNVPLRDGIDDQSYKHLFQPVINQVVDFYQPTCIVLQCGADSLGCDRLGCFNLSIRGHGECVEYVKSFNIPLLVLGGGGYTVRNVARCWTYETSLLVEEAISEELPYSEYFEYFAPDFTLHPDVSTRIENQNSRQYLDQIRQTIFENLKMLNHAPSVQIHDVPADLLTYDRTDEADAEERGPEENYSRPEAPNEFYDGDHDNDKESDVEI

On to `Nc1ccccc1NC(=O)CCCCCCC(=O)Nc1cccc(-n2cc(-c3ccccc3)nn2)c1`, for which the IC50 in test [1] is greater than 50000 nM; in test [2], greater than 30000 nM; in [3], greater than 50000 nM; in test [4], greater than 30000 nM; in test [5] it was greater than 50000 nM; in [6], 122 nM. For the same compound, the IC50 in test [7] was 32000 nM; in test [8] it was greater than 30000 nM; in [9], greater than 50000 nM.
As to `O=C(CCCCCCC(=O)Nc1cccc(-c2cn(C3CCCCC3)nn2)c1)NO`, the IC50 came out at 4000 nM in [1]; 3.3 nM in test [2]; 100 nM in [3]; 8.6 nM in test [10]; 1190 nM in test [4]; 400 nM in test [5]. The IC50 was 3.7 nM in [6]; 100 nM in [7]; 9.8 nM in test [8]; 27.5 nM in test [11]; 500 nM in test [9].
Regarding `O=C(CCCCCCC(=O)Nc1cccc(-c2cn(-c3cc(CO)cc(CO)c3)nn2)c1)NO`, the IC50 is 1.9 nM in test [2]; 5.7 nM in [10]; 1320 nM in [4]; 5.8 nM in test [8]; 27.8 nM in [11].
For the compound `O=C(CCCCCCC(=O)Nc1cccc(-c2cn(-c3ccc(I)cc3)nn2)c1)NO`, the IC50 was 1100 nM in test [1]; 2.2 nM in test [2]; 2330 nM in [3]; 8 nM in [10]; greater than 30000 nM in test [4]; 1400 nM in [5]. The IC50 was 7700 nM in test [7], 10.7 nM in test [8], 24.6 nM in test [11] and 2340 nM in [9].
Compound `O=C(CCCCCCC(=O)Nc1cccc(-c2cn(-c3ccccc3)nn2)c1)NO` showed an IC50 in test [9] of less than 500 nM.
As for `O=C(CCCCCCC(=O)Nc1cccc(-c2cn(-c3cc(F)cc(F)c3)nn2)c1)NO`, the IC50 in test [10] amounted to 5.3 nM.
Regarding `O=C(CCCCCCC(=O)Nc1cccc(-c2cn(-c3ccc(C(F)(F)F)cc3)nn2)c1)NO`, the IC50 in test [2] was found to be 2.9 nM; in test [10] it was 8.7 nM; in test [4] it was 5220 nM; in test [8], 14.5 nM; in test [11], 28.5 nM.
For `O=C(CCCCCCC(=O)Nc1cccc(-n2cc(C3CCCCC3)nn2)c1)NO`, the IC50 in [1] was found to be 2000 nM; in [2], 4.3 nM; in test [3], 100 nM; in test [10] it was 12.1 nM; in test [4], 2750 nM; in test [5], 400 nM. Also, the IC50 amounted to 5.3 nM in [6]; 900 nM in [7]; 16.6 nM in [8]; 48.2 nM in test [11]; 500 nM in [9].
For the compound `O=C(CCCCCCC(=O)Nc1cccc(-c2cn(-c3ccc(F)cc3)nn2)c1)NO`, the IC50 amounted to 8.4 nM in test [2]; 31.9 nM in test [10]; 12000 nM in test [4]; 32.8 nM in test [8]; 60 nM in test [11].
In the case of `O=C(CCCCCCC(=O)Nc1cccc(-n2cc(-c3ccccc3)nn2)c1)NO`, the IC50 in test [2] was found to be 3.1 nM; in test [10], 4.6 nM; in test [4], 4180 nM; in test [8], 6.8 nM; in test [11], 25.1 nM.
